In US20100160209A1, “Composition and Method for Increasing Cell Permeability of a Compound” (SmithKline Beecham Corporation, priority 2006, published 2010):
Ends that are not written are not given here. Peptide text beside a SMILES is read from it. * marks the point of attachment. Boc = CC(C)(C)OC(=O)*; OSu = O=C1CCC(=O)N1O*

Legend:
[1] = solubility in aqueous solutions; assay type: physicochemical; details: for CPS-Cys particularly in slightly acidic pH
Text: (§1) Initial synthesis was of the 11-mer CPS peptide in which its C-terminal end was an N-hydroxysuccinimide (NHS) ester. This CPS-OSu peptide was expected to be highly reactive to the amine groups of human insulin and thus facilitate the conjugation reactions between CPS and Insulin. […] As a result, this CPS-OSu activated ester was cyclized via an internal amide bond. To overcome this side-reaction, a derivative of the CPS-OSu peptide in which all three amine groups of this peptide were protected by a Boc group (tert-Butyloxycarbonyl) was also made.
(§2) The 12-mer CPS-Cys peptide Sequence of CPS-Cys Peptide: K-L-K-L-A-L-A-L-A-L-A-C (Seq ID no. 2) was synthesized by conventional solid-phase peptide synthesis methodology. Standard synthesis protocols based on Fmoc chemistry were used. After synthesis, the crude peptides were cleaved from the solid support and purified by C18 reverse-phase HPLC eluted with acetonitrile aqueous buffers. The purified peptide was characterized by analytical HPLC analysis (FIG. 2, top panel) and mass spectrometry analysis (FIG. 2a, bottom panel, calculated MW=1227.6 Da and measured MW (MH+)=1227.9 Da).

[2] = tested on: CCK-releasing cells; details: "is said to elicit"; assay of WO 01/41812; cited from earlier work
[3] = stability of the peptide; assay type: physicochemical; details: CPS-OSu: reacts with its own amine groups, cyclized via internal amide bond
Text: as §1, §2

Row | solubility in aqueous solutions [1] | stability of the peptide [3] | Molecule | increase in CCK secretion [2]
1 | poor solubility | – | CC(C)C[C@H](NC(=O)[C@H](C)NC(=O)[C@H](CC(C)C)NC(=O)[C@H](CCCCNC(=O)OC(C)(C)C)NC(=O)[C@H](CC(C)C)NC(=O)[C@H](CCCCNC(=O)OC(C)(C)C)NC(=O)OC(C)(C)C)C(=O)N[C@@H](C)C(=O)N[C@@H](CC(C)C)C(=O)N[C@@H](C)C(=O)N[C@@H](CC(C)C)C(=O)N[C@@H](C)C(=O)ON1C(=O)CCC1=O [amine-protected peptide] (Boc-K(Boc)LK(Boc)LALALALA-OSu) | –
2 | – | – | STFWAYQPDGDNDPTDYQKYEHTSSPSQLLAPGDYPCVIEV (listed as Homo sapiens) [Native LCRF, luminal cholecystokinin releasing factor] | ~300%
3 | good solubility | stable | KLKLALALALAC [CPS-Cys peptide, K-L-K-L-A-L-A-L-A-L-A-C] | –
